The values below come from patent US20190202774A1, “BIARYL COMPOUNDS AS ANTIMICROBIAL AND CHEMOTHERAPEUTIC AGENTS” (priority 2015, published 2019).

The subject of data set [1] is human dermal fibroblasts (HDF). The note with it: 24-h incubation, non-linear curve fit. The protocol:
(§1) Finally, toxicity of biaryl compounds was tested against human lung airway epithelial cells (16HBE), human dermal fibroblasts, and J774.A1 murine macrophages using an ALAMARBLUE® Cell Viability Assay. Biaryl compounds, C58, acetylated C58 (C58-2), C59, C59-2, C59Na, and C59Li were incubated with cells for 24 hours and an ALAMARBLUE® Cell Viability Assay was performed to determine cell viability relative to untreated controls (FIGS. 13A-13C). Cell viability curves were analyzed using non-linear curve fit to yield the inhibitory concentration at median cell survival (LD50) for all cell lines (Table 3).
(§2) Next, the toxicity of lead candidates was tested against human lung airway epithelial cells (16HBE) and human dermal fibroblasts (HDF) using an alamarBlue® Cell Viability Assay.

Data set [2] relates to human lung airway epithelial cells (16HBE). To be noted: 24-h incubation, non-linear curve fit. The protocol: as §1, §2
The test system of a further data set is erythrocytes. The note with it: 50 μg/mL, two hour incubation; cited from earlier work.
The test system of data set [3] is erythrocytes from sheep blood. In words: Hemolytic activity. To be noted: 1-h incubation. Here is the method: Toxicity of biaryl compounds was tested against erythrocytes as well as eukaryotic epithelial, dermal, and macrophage cell lines in vitro.
Toxicity of lead antimicrobial candidates was tested against erythrocytes, as well as eukaryotic epithelial and dermal cell lines in vitro.

For Gramicidin D [reference compound], in data set [1], the “Fibroblasts LD50” value is 3.9 µg/mL. In data set [2], the “16HBE LD50” value came out at 20.5 µg/mL. Also, in the data set with erythrocytes, the hemolysis is 60%. Further, in data set [3], the “concentration resulting in 100% hemolysis” value came out at 48 µg/mL and the onset of hemolysis is 2 µg/mL.
